Test system: T1, oFluc
T1 construct: gene firefly luciferase; not fused to Venus
Assay: luminescence intensity, luminometer, Michaelis-Menten fit
Format: biochemical, Pyrocoelia matsumurai
Conditions: 0.1 M citric acid/0.1 M Na2HPO4 pH 7.0, 1 mM ATP, 2 mM MgSO4, D-luciferin 0-990 µM; partially purified enzyme
Description: luminescence intensity, luminometer, Michaelis-Menten fit on oFluc | Km for oFluc or Venus/Akaluc for D-luciferin or AkaLumine were determined

## O=C(O)[C@H]1CSC(c2nc3ccc(O)cc3s2)=N1 [D-luciferin]
  Km: 31.9 µM
